The values below come from patent US20100256136A1, “Method for Enhancing Pdt Efficacy Using a Tyrosine Kinase Inhibitor” (priority 2006, published 2010).

The test system of data set [1] is RIF-1 cells. The data set can be described thus: In vitro PDT phototoxicity (MTT assay) with ABCG2 modulators. The settings on record: for Increase of HPPH-PDT phototoxicity: 10 μM modulator, high light doses. On the technique in general: Tetrazolium dyes change colour on reduction, which living cells bring about.
For data set [2], the system named is RIF-1 cells. Type of data set: cell-based, murine. The note with it: for Increase of intracellular HPPH levels: 0.8 μM HPPH, 10 μM modulator, p<0.01. The method, then:
(§1) Cells were plated in 6-well plates at a density of 3×10^5 cells per well and incubated overnight. […] Cells were cultured for an additional 4 hours, then washed with cold culture medium and with PBS. Photosensitizer levels were determined using Solvable® (Perkin Elmer, Boston, MA) extraction (17). Briefly, the cells were solubilized in 0.5 ml Solvable® at 37° C. overnight. The Solvable® extract then was diluted 1:1 with PBS, the photosensitizer levels were determined by fluorometry, and concentrations were extrapolated from standard curves. Intracellular photosensitizer levels were normalized to intracellular protein content. To study photosensitizer efflux, cells were incubated with photosensitizer for 4 hours, then washed once with cold medium, resuspended in drug-free medium, placed at 37° C. or 4° C. for 1 hour and washed once with cold PBS. Photosensitizer levels were then determined using Solvable® extraction, as above.

Data set [3] deals with T1, ABCG2 (Homo sapiens, UniProt Q9UNQ0).
T1 sequence (Q9UNQ0 1-655): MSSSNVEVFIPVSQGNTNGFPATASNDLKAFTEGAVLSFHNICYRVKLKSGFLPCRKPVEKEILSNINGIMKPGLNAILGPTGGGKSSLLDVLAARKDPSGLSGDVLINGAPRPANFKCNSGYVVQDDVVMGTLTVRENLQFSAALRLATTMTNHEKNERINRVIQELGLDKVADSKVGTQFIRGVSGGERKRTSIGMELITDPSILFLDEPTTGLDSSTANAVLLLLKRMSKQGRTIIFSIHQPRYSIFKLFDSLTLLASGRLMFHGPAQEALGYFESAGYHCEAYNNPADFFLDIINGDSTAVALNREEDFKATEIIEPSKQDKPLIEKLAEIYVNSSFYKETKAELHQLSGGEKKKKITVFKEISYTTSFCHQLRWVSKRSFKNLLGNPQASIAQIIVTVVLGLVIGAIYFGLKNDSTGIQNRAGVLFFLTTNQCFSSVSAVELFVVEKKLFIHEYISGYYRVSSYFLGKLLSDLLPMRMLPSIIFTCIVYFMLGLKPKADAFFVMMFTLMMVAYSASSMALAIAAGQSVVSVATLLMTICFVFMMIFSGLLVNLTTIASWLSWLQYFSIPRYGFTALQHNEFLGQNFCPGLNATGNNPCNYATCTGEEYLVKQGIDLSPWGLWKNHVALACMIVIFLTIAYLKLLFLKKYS
The note with it: literature (refs 8, 10); cited from earlier work.

Data set [4] deals with HEK-293 pcDNA cells. Kind of data set: In vitro PDT phototoxicity (MTT assay) with ABCG2 modulators. The format is cell-based. The note with it: 0.8 μM HPPH.
Data set [5] relates to FaDu cells. Described as above. The format is cell-based, human. The settings on record: FaDu cells (lack ABCG2), 0.8 μM HPPH, 10 or 20 μM imatinib mesylate.
In data set [6] the test system is RIF-1 tumors. Kind of data set: HPPH levels in tumor, skin and muscle of tumor-bearing mice. The format is in vivo, C3H/HeJCr mice. The settings on record: same regimen as tumor levels, 24 hours after HPPH. The method, then:
(§2) To determine photosensitizer levels, samples of tumor, skin and muscle tissue were harvested 24 hours after the HPPH administration and dissolved in Solvable at 63° C. overnight. HPPH levels were measured by fluorometry as described above. In other experiments mice were administered ^14C-labelled HPPH and photosensitizer levels in the harvested tissues were determined by scintillation counting. […] After 24 hours, the tumors were treated with 665 nm light from an argon ion laser-pumped dye laser (Spectra Physics, Mountain View CA) with a fluence of 72 J/cm^2 delivered at a rate of 14 mW/cm^2. […] Tumors were measured every 1 to 3 days, and mice were sacrificed when tumor volumes exceeded 400 mm^3.

The subject of data set [7] is BCC-1 cells. Kind of data set: In vitro PDT phototoxicity (MTT assay) with ABCG2 modulators. Type of data set: cell-based, human. The note with it: BCC-1 cells (ABCG2+), 0.4 μM HPPH, 10 μM imatinib mesylate.
In a further data set the test system is HEK-293 R482 cells. Kind of data set: Photosensitizer accumulation with ABCG2 modulators. Type of data set: cell-based. The settings on record: 10 μM modulator, 0.8 μM HPPH, four hours, p<0.05. The method, then:
as §1

Data set [8] concerns HEK-293 pcDNA cells. The data set can be described thus: Photosensitizer accumulation with ABCG2 modulators. The note with it: 10 μM modulator, 0.8 μM HPPH, four hours. Type of data set: cell-based. The method, then:
as §1

For data set [9], the system named is Colo 26 cells. Kind of data set: In vitro PDT phototoxicity (MTT assay) with ABCG2 modulators. Type of data set: cell-based, murine. The settings on record: ALA, 10 μM imatinib mesylate.
In data set [10] the test system is Colo 26 cells. The data set can be described thus: Photosensitizer accumulation with ABCG2 modulators. The note with it: 0.8 mM ALA, with vs without imatinib mesylate. The format is cell-based, murine. The method, then:
as §1

Data set [11] has as its system RIF-1 tumors. The method, then: as §2
Data set [12] deals with ABCG2. The data set can be described thus: ABCG2 substrate status concluded from efflux and phototoxicity studies. Type of data set: cell-based. The settings on record: conclusion from efflux and phototoxicity data. The method, then: as §1
The test system of data set [13] is RIF-1 cells. The data set can be described thus: Photosensitizer efflux, 1 h in drug-free medium at 37° C. or 4° C. The format is cell-based, murine. The settings on record: RIF-1 cells (ABCG2+), 1 h efflux. The method, then: as §1
Data set [14] deals with Colo 26 cells. Described as above. The format is cell-based, murine. The settings on record: Colo 26 cells (ABCG2+), 1 h efflux. The method, then:
as §1

Data set [15] relates to HEK-293 pcDNA cells (ABCG2-). The data set can be described thus: HPPH efflux in empty-vector control cells. The note with it: HEK293-pcDNA3 cells. The format is cell-based. From the text:
(§3) In general known cell lines were used. FaDu human hypopharyngeal squamous cell carcinoma, RIF-1 murine radiation-induced fibrosarcoma and Colo 26 murine colon carcinoma cells were obtained from the American Type Culture Collection (ATCC; Manassas, VA). BCC-1/KMC, a human basal cell carcinoma cell line (14), was provided by Dr. Tak-Wah Wong, National Cheng Kung University Hospital, Tainan, Taiwan. HEK-293 cells transfected with either an empty pcDNA3 vector or a pcDNA3 vector containing full-length ABCG2 (HEK-293 pcDNA or HEK-293 […]) were provided by Dr. Susan Bates at the U.S. National Institute of Health, Bethesda, MD.. Cells were plated in 6-well plates at a density of 3×10^5 cells per well and incubated overnight. […] Cells were cultured for an additional 4 hours, then washed with cold culture medium and with PBS. Photosensitizer levels were determined using Solvable® (Perkin Elmer, Boston, MA) extraction (17). Briefly, the cells were solubilized in 0.5 ml Solvable® at 37° C. overnight. The Solvable® extract then was diluted 1:1 with PBS, the photosensitizer levels were determined by fluorometry, and concentrations were extrapolated from standard curves. Intracellular photosensitizer levels were normalized to intracellular protein content. […] Photosensitizer levels were then determined using Solvable® extraction, as above.

The subject of data set [16] is HEK-293 R482 cells (ABCG2+). Kind of data set: HPPH uptake and efflux in ABCG2-transfected cells. The format is cell-based.
Source text: as §3

Data set [17] concerns FaDu cells. The data set can be described thus: Photosensitizer efflux, 1 h in drug-free medium at 37° C. or 4° C. The note with it: lack ABCG2 expression, 1 h efflux. The format is cell-based, human. The method, then:
as §1

Data set [18] concerns BCC-1 cells. The data set is described as above. The note with it: BCC-1 cells (ABCG2+), 1 h efflux. The format is cell-based, human. The method, then: as §1

Where a name gives a salt, the structure may show the parent alone.

Consider `COc1ccc2c3c([nH]c2c1)[C@H](C=C(C)C)N1C(=O)[C@@H]2CCCN2C(=O)[C@@H]1C3` [FTC, fumitremorgin C], for which the “Increase of HPPH-PDT phototoxicity” value with RIF-1 cells [1] (0.8 μM HPPH) was about 2 logs. Moreover, in the data set with RIF-1 cells [2], the “Increase of intracellular HPPH levels” value was about 4 fold.

As to pyropheophorbide-a methyl ester, the “Transport by ABCG2” value at ABCG2 [3] is on record as “transports”.

With `C=Cc1c(C)c2cc3nc(c(CC(=O)O)c4[nH]c(cc5nc(cc1[nH]2)C(C)=C5CC)c(C)c4C(=O)O)[C@@H](CCC(=O)O)[C@@H]3C` [chlorin e6], on ABCG2 [3], the “Transport by ABCG2” value is given as “transports”.

As to `Cc1ccc(NC(=O)c2ccc(CN3CCN(C)CC3)cc2)cc1Nc1nccc(-c2cccnc2)n1` [imatinib mesylate, 4[(4-methyl-1-piperazininyl)methyl]-N-(4-methyl-3-[(4-(3-pyidinyl)-2-pyrimidinyl)amino)-phenyl] benzamide methane sulfonate], in the data set on HEK-293 pcDNA cells [4] (HEK-293 pcDNA3 cells, pretreatment with 10 μM), the “Effect on sensitivity to HPPH-PDT” value is on record as “no effect”. In addition, the results for the “Effect on HPPH-PDT phototoxicity” value in the data set on FaDu cells [5] and in the data set on BCC-1 cells [7] were “not” and “increased”, respectively. Moreover, the “Effect on HPPH levels in skin and muscle” value with RIF-1 tumors [6] is recorded as “less effect”. The “Effect on intracellular HPPH levels” value in the data set on HEK-293 R482 cells is given as “increased”. Moreover, the “Effect on HPPH accumulation” value with HEK-293 pcDNA cells [8] is listed as “no effect”. The “Effect on phototoxicity of PpIX” value in the data set on Colo 26 cells [9] is on record as “increased”. Further, the “Effect on phototoxicity of BPD-MA” value in the data set on RIF-1 cells [1] (0.14 μM BPD-MA, 10 μM imatinib mesylate) was “increased”. In addition, in the data set with RIF-1 cells [1] (0.8 μM HPPH), the “Increase of HPPH-PDT phototoxicity” value is about 2 logs. In addition, the “Effect on phototoxicity of HPPH-lactose-PDT” value in the data set on RIF-1 cells [1] (1.6 μM HPPH-Lactose, 10 μM imatinib mesylate) was “did not increase”. Moreover, the “Effect on phototoxicity of Photofrin-PDT” value in the data set on RIF-1 cells [1] (2 μg/ml Photofrin, 10 μM imatinib mesylate) was “did not increase”. In addition, the “Effect on intracellular levels of ALA-induced PpIX” value in the data set with Colo 26 cells [10] is given as “increased”. Besides, in the data set with RIF-1 tumors [11] (brief course, 4 x 200 mg/kg oral gavage), the “Anti-tumor effects of imatinib mesylate alone, without PDT” value is given as “no anti-tumor effects”. For the same compound, in the data set with RIF-1 tumors [11] (mouse, in vivo), the Observable toxicity entry was “no observable toxicity”. Also, the “Effect on intracellular levels of BPD-MA” value in the data set on RIF-1 cells [2] (0.14 μM BPD-MA, with vs without imatinib mesylate) is “increased”. For the same compound, the “Increase of intracellular HPPH levels” value in the data set on RIF-1 cells [2] is listed as about 4 fold.

Regarding `COc1cc2ncnc(Nc3ccc(F)c(Cl)c3)c2cc1OCCCN1CCOCC1` [gefitnib, N-(3-chloro-4-fluoro-phenyly)-7-methoxy-6(3-morpholin-4-ylpropoxy) quinazolin-4-amine], the “Effect on HPPH-PDT phototoxicity” value in the data set on RIF-1 cells [1] (0.8 μM HPPH, CsA 10 μM, gefitinib 5 μM) is reported as “effective”. Besides, the Dark toxicity entry in the data set on RIF-1 cells [1] (5 μM) is recorded as “significant dark toxicity”.

Regarding `C=CC1=C(C)c2cc3[nH]c(cc4nc(cc5[nH]c(cc1n2)c(C)c5CCC(=O)O)C(CCC(=O)O)=C4C)c(C)c3C=C` [5-aminolevulinic acid (ALA)-induced PpIX, protoporphyrin IX], the “Transport by ABCG2” value at ABCG2 [3] was “transports”.

Turning to `C=Cc1c(C)c2cc3nc(c4c5[nH]c(cc6nc(cc1[nH]2)C(C)=C6CC)c(C)c5C(=O)[C@@H]4C(=O)OC)[C@@H](CCC(=O)O)[C@@H]3C` [pheophorbide α], the “Transport by ABCG2” value on ABCG2 [3] is “specific substrate”.

As for `CCCCCCOC(C)c1c(C)c2cc3nc(c4c5[nH]c(cc6nc(cc1[nH]2)C(C)=C6CC)c(C)c5C(=O)C4)[C@@H](CCC(=O)O)[C@@H]3C` (stereo partly shown) [HPPH, 2-[1-hexyloxyethyl]-2-devinyl pyropheophorbide-a], in the data set on HEK-293 pcDNA cells [4] (no modulator), the “Sensitivity to HPPH-PDT, HEK-293 pcDNA cells compared to HEK-293 R482 cells” value is listed as “more sensitive”. Moreover, in the data set on ABCG2 [12], the “Substrate for ABCG2” value is listed as “ABCG2 substrate”. Further, the “Intracellular HPPH level after efflux at 37° C. compared to 4° C.” value with RIF-1 cells [13], in the data set on Colo 26 cells [14] and with BCC-1 cells [18] was “significantly (p<0.01) lower” each time. The “Temperature-dependent changes in efflux of HPPH” value in data set [15] is “no temperature-dependent changes”. Also, the “Intracellular HPPH level after efflux at 4° C. compared to 37° C.” value in data set [16] (HEK-293 R482 cells, 1 h efflux) was “significantly (p<0.05) higher”. Further, the “HPPH levels after uptake (0 hour group), ABCG2- HEK-293 pcDNA3 cells compared to ABCG2+ HEK-293 R482 cells” value in [16] (after 4 h uptake) is listed as “significantly (p<0.05) higher”. Besides, in the data set on RIF-1 tumors [11] (HPPH-PDT treatment alone: 0.2 μmol/kg HPPH, 24 hours later 72 J/cm^2 665 nm light at 14 mW/cm^2), the “Time for 50% of the tumors to grow to 400 mm^3” value came out at 6 days. In the data set with FaDu cells [17], the “HPPH content following efflux at 37° C. and 4° C.” value is reported as “did not differ significantly”.
